Data published in US20240383900A1, “SUBSTITUTED PYRAZOLO [1,5-A]PYRIMIDINE-7-AMINE COMPOUNDS AS CDK INHIBITORS AND THEIR THERAPEUTIC USE” (Carrick Therapeutics Limited, priority 2021, published 2024).
Where two headings read alike, the source gives them in different places.

Experiments:
A673 cells [1] = test: Cytotoxicity in A673 cells (Cell Titer Glo viability); format: cell-based; details: for Ratio of Biochemical Potency:Cellular Potency: CDK12 IC50 / A673 IC50; for IC50: Homo sapiens
Outline: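 Cells plated at 1.2×10^5 per well in DMEM+10% FBS, 24 h, then compound series ± MLN4924 (30 nM final) in 0.1% DMSO for 72 h. Viability by Cell Titer Glo luminescence, normalised to vehicle (100%) and 0.1% Triton x-100 (0%); MLN4924 curves normalised to MLN4924-treated controls.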

Human CDK12 wt/CycK = Human CDK12 wt/CycK (Homo sapiens (Human), UniProt Q9NYV4); test: Radiometric protein kinase assay (33PanQinase Activity Assay), CDK12; format: biochemical; details: for CDK7/CDK12: ratio of CDK7 IC50 to CDK12 IC50, greater than 1 indicates selectivity for CDK12
Outline: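 Radiometric 33P assay: ATP, test compound (in 10% DMSO) and premixed substrate/enzyme incubated 60 min at 30 °C, stopped with 2% H3PO4. 33Pi incorporation counted by scintillation; least-squares curve fit.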

Human CDK7/CycH/MAT1 = Human CDK7/CycH/MAT1 (Homo sapiens (Human), UniProt P50613); test: Radiometric protein kinase assay (33PanQinase Activity Assay), CDK7; format: biochemical; details: ATP 3 μM
A673 cells [2] = test: A673 cytotoxic potency shift in the presence of MLN4924 (cyclin K degrader activity); format: cell-based; details: 30 nM MLN4924, 72 hours
Protocol: Inhibition of cell viability by test compounds was assessed in A673 cells (ATCC CRL-1598) and the compound mode of action was attributed to a “molecular-glue”/cyclin K-degradation mechanism by probing for a loss of compound potency in the presence of the NEDD8-activating enzyme inhibitor, MLN4924.
Cells were plated in 96-well plates at a density of […] viable cells per well in 200 μL fully supplemented growth medium (DMEM+10% heat inactivated foetal bovine serum) and incubated for 24 hours in standard tissue culture conditions. Compounds, including MLN4924, were solubilised in DMSO and then diluted in fully supplemented growth medium at 2× their final assay concentration such that the final DMSO concentration was 0.1%. Growth medium in the assay plates was replaced with 50 μL of growth medium containing 2×MLN4924 (final assay concentration: 30 nM, where tested) or vehicle only and 50 μL of growth medium containing a 2× compound concentration series or vehicle only such that each compound was at 1× final assay concentration in 100 μL.
Cells were then incubated for 72 hours in standard tissue culture conditions before viability was assessed using 50 μL Cell Titer Glo reagent (Promega) per well and luminescence measured on an EnVision plate reader. Data were normalised to vehicle control (100%) and cells treated with 0.1% Triton x-100 for 1 hour before viability measurement (0%; full cell kill). IC50 values were determined using a semi-logistic curve fit with parameters “top” fixed at 100% and “bottom” at or below 0%. Viability curves generated in the presence of MLN4924 were normalised and fixed to controls treated with MLN4924.

[3] = A673, read-out: Cellular Potency IC50 (nM) (in A673 cells)
[4] = A673 cells, 72 hours, read-out: A673 IC50
[5] = ATP 0.3 μM, read-out: CDK12 IC50
[6] = read-out: CKD12 Biochemical Potency IC50

Human CDK12 wt/CycK, sequence (Q9NYV4 whole entry): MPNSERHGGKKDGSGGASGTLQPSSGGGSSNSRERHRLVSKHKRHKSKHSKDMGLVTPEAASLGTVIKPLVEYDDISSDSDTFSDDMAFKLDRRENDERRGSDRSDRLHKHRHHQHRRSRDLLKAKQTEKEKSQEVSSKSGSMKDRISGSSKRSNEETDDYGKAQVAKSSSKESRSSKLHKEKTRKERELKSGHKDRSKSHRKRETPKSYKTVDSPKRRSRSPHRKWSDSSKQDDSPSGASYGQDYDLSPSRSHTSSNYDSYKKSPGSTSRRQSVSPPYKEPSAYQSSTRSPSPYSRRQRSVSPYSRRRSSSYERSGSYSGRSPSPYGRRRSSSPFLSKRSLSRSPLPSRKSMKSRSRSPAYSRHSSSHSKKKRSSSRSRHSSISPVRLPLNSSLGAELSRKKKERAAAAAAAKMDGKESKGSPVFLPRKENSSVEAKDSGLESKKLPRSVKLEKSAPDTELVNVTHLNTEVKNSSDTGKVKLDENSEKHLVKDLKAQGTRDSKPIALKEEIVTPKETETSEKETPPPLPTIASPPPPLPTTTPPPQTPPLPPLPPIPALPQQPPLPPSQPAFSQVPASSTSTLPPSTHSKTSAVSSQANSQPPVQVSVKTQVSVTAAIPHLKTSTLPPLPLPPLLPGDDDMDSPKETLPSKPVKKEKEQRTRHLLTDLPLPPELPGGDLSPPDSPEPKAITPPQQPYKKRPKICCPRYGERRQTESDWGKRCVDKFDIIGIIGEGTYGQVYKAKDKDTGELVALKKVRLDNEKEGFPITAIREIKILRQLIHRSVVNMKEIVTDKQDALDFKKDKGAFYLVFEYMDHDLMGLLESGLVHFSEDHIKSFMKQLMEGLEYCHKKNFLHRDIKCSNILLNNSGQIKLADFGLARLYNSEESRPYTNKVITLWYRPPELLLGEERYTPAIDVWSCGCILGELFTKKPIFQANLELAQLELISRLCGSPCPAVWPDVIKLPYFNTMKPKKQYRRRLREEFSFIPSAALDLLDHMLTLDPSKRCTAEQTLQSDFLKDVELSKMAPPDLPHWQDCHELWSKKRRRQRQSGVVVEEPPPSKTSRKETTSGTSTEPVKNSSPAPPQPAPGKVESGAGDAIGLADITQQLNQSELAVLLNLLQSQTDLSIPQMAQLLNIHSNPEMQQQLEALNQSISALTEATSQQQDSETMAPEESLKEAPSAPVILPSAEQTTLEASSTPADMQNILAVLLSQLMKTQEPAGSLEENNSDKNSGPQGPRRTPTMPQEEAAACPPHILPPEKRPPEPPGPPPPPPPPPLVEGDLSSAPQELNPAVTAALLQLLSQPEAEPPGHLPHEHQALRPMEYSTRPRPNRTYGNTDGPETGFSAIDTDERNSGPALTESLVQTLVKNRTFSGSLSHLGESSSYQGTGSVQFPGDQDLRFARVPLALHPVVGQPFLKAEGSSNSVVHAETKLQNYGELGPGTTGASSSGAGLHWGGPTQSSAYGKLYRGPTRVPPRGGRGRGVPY
Human CDK12 wt/CycK, sequence (O75909 whole entry partner): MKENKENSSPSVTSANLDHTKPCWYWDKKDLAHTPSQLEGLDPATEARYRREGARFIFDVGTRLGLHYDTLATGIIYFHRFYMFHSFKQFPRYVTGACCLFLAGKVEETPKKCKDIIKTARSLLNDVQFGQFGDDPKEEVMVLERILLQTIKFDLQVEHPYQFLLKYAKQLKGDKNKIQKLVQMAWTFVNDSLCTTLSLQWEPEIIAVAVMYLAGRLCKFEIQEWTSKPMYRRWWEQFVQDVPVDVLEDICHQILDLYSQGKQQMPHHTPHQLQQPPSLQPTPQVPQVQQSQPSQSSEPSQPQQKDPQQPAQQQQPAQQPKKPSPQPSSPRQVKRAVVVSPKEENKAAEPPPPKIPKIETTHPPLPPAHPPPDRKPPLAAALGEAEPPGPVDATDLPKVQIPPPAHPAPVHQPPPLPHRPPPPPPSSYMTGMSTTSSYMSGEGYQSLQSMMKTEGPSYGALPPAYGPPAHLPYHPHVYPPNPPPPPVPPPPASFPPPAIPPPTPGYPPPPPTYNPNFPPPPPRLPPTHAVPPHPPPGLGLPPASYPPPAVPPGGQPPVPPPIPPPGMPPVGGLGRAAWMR
Human CDK7/CycH/MAT1, sequence (P50613 whole entry): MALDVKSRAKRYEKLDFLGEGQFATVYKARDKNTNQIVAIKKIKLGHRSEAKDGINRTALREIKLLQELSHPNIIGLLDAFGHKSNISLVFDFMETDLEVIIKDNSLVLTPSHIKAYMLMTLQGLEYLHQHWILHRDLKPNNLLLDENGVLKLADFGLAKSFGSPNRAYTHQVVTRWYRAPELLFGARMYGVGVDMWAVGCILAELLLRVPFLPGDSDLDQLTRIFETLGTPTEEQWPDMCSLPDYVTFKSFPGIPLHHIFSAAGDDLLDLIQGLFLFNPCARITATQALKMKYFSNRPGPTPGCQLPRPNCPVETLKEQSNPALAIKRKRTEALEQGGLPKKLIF
Human CDK7/CycH/MAT1, sequence (P51946 whole entry partner): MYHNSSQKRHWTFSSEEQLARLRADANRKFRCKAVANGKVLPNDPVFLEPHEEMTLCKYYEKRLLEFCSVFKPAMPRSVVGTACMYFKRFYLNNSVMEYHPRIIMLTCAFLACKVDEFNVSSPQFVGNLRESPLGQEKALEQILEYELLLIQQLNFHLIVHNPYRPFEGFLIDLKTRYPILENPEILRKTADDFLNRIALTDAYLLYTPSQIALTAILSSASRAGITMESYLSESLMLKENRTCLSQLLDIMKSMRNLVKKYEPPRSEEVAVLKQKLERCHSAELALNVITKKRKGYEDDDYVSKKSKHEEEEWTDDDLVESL
Human CDK7/CycH/MAT1, sequence (P51948 whole entry partner): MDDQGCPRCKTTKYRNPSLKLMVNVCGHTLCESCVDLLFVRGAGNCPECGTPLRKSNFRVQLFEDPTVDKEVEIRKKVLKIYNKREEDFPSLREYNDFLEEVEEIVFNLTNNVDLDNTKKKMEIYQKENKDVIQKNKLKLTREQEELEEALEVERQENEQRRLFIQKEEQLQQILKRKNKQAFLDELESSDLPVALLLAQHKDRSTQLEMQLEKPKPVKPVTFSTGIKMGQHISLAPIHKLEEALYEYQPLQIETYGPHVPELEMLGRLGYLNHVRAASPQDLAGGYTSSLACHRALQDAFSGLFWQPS

Row | Compound | Ratio of Biochemical Potency:Cellular Potency (A673 cells [1]) | IC50 (A673 cells [1]; [3]) [nM] | IC50 (A673 cells [1]; [4]) [nM] | IC50 (Human CDK12 wt/CycK; [5]) [µM] | CDK7/CDK12 (Human CDK12 wt/CycK) | IC50 (Human CDK12 wt/CycK; [6]) [µM] | IC50 (Human CDK7/CycH/MAT1) [µM] | Cyclin K Degrader Activity (A673 potency shift + MLN4924) (A673 cells [2])
1 | Clc1cnn2c(NCc3ccc(-c4ccccn4)cc3)cc(N[C@H]3CCCNC3)nc12 [PPA-093] | 9.69 | 3.2 | 1.7 | 0.031 | 7.2 | 0.031 | 0.222 | ++ (>2 and ≤5 fold change.)
2 | O[C@H]1CNCC[C@@H]1CNc1cc(NCc2ccc(-c3ccccn3)cc2F)n2ncc(C3CC3)c2n1 [PPA-020] | 30.00 | 3.3 | 3.3 | 0.099 | 3.1 | 0.099 | 0.311 | +++ (>5 fold change.)
3 | C1=C(c2cc(NCc3ccc(-c4ccccn4)cc3)n3ncc(C4CC4)c3n2)CNCC1 [PPA-088] | 24.00 | 2.5 | 2.5 | 0.06 | 12.7 | 0.06 | 0.762 | +++ (>5 fold change.)
4 | CCc1cnn2c(NCc3ccc(-c4ccccc4)cc3F)cc(NC[C@H]3CCNC[C@@H]3O)nc12 [PPA-069] | 11.62 | 10.5 | 10.5 | 0.122 | 2.2 | 0.122 | 0.267 | ++ (>2 and ≤5 fold change.)
5 | N#Cc1cnn2c(NCc3ccc(-c4ccccn4)cc3)cc(N[C@H]3CCCNC3)nc12 [PPA-092] | 32.50 | 0.4 | 1 | 0.013 | 18.1 | 0.013 | 0.235 | +++ (>5 fold change.)
6 | c1ccc(-c2ccc(CNc3cc(NCC4CCNCC4)nc4c(C5CC5)cnn34)cc2)nc1 [PPA-040] | 36.78 | 20.2 | 20.2 | 0.743 | 9.3 | 0.743 | 6.92 | +++ (>5 fold change.)
7 | O[C@H]1CNCC[C@@H]1CNc1cc(NCc2ccc(-c3ccccc3)cc2)n2ncc(C3CC3)c2n1 [PPA-059] | 12.54 | 12.6 | 12.6 | 0.158 | 4.0 | 0.158 | 0.637 | +++ (>5 fold change.)
8 | c1ccc(-c2ccc(CNc3cc(N4CC5CC(C4)N5)nc4c(C5CC5)cnn34)cc2)nc1 [PPA-080] | 12.06 | 12.6 | 12.6 | 0.152 | 8.0 | 0.152 | 1.21 | +++ (>5 fold change.)
9 | Fc1cc(-c2ccccn2)ccc1CNc1cc(N[C@H]2CCNC2)nc2c(C3CC3)cnn12 [PPA-072] | 42.50 | 0.8 | 0.8 | 0.034 | 29.4 | 0.034 | 1 | +++ (>5 fold change.)
10 | c1cnc(-c2ccc(CNc3cc(N[C@H]4CCCNC4)nc4c(C5CC5)cnn34)cc2)nc1 [PPA-089] | 14.74 | 1.9 | 3.4 | 0.028 | 9.8 | 0.028 | 0.274 | +++ (>5 fold change.)
11 | N#Cc1cnn2c(NCc3ccc(-c4ccccc4)cc3F)cc(N[C@H]3CCNC3)nc12 [PPA-071] | 28.57 | 1.4 | 1.4 | 0.04 | 38.8 | 0.04 | 1.55 | +++ (>5 fold change.)
12 | c1ccc(-c2ccc(CNc3cc(O[C@H]4CCNC4)nc4c(C5CC5)cnn34)cc2)nc1 [PPA-065] | 9.06 | 3.2 | 3.2 | 0.029 | 9.8 | 0.029 | 0.284 | +++ (>5 fold change.)
13 | c1ccc(-c2ccc(CNc3cc(OCC4CNC4)nc4c(C5CC5)cnn34)cc2)nc1 [PPA-055] | 5.38 | 24.9 | 24.9 | 0.134 | 17.8 | 0.134 | 2.39 | ++ (>2 and ≤5 fold change.)
14 | CC(C)c1cnn2c(NCc3ccc(-c4ccccc4)cc3)cc(NC[C@H]3CCNC[C@@H]3O)nc12 [PPA-004, (3R,4R)-4-(((7-(([1,1′-biphenyl]-4-ylmethyl)amino)-3-isopropylpyrazolo[1,5-a]pyrimidin-5-yl)amino)methyl)piperidin-3-ol] | 22.70 | 6.3 | 6.3 | 0.143 | 4.0 | 0.143 | 0.576 | +++ (>5 fold change.)
15 | Cc1ncccc1-c1cc(NCc2ccc(-c3ccccn3)cc2)n2ncc(C3CC3)c2n1 [PPA-096] |  | 14.9 | 7.6 |  |  |  |  | +++ (>5 fold change.)
